Results: patent US20240400584A1, “COMPOUNDS AND METHODS FOR MODULATING SPLICING” (REMIX THERAPEUTICS INC., priority 2021, published 2024)

Legend:
HTT = experiment: RT-qPCR splicing assay, HTT AJ/CJ mRNA; format: cell-based, human; conditions: A673 or K562 cells; for AC50: increase in alternative junction mRNA; for IC50: decrease in canonical junction mRNA
Method in brief: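 Cells: A673 (DMEM/10% FBS) or K562 (IMDM/10% FBS). Dosing: 11-pt 3-fold, top 10 uM final, DMSO ≤0.25%, 24 h, 37° C. Readout: one-step RT-qPCR on lysate, CJ vs AJ isoforms; ΔCt vs housekeeper, ΔΔCt vs DMSO, 2^(−ΔΔCt) RQ → % response.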

[1] = tested on: HiBit-tagged MYB in K562 cells; experiment: HiBiT protein abundance assay, MYB; format: cell-based, human; conditions: HiBiT-modified K562 cells, 24 hours, luminescence
Method: Compounds described herein were used to screen for effects on quantitative protein abundance using a HiBit assay system (Promega). Quantitative protein abundance was determined by measuring the protein levels of HiBit-tagged protein targets expressed in cell culture via luminescence using the Nano-Glo HiBiT Lytic Detection System, which uses a split complementation assay format to reconstitute NanoBiT enzyme to generate a luminescent signal. A protein abundance assay was developed such that endogenous protein targets could be modified with the HiBiT peptide tag and their abundance could be assessed after compound treatment. Briefly, K562 cell lines containing a HiBiT-modification were treated with various compounds described herein (e.g., compounds of Formulas (I)). After treatment for 24 hours, the protein abundance of a specific target was determined by measuring luminescence.
Cells were maintained in IMDM with 10% FBS. Before the assay, cells were diluted with […] growth media (IMDM+[…] media) and were seeded in a 384-well plate at a density of 10000 cells/well (for each cell line listed in Table 8). Each compound was prepared as a 10-point 3-fold serial dilution in DMSO with the top dose at a final concentration of 10 μM in the well. Unmodified K562 cells were added at the previously specified density with DMSO to serve as an assay baseline and positive control (PC) and DMSO only with the respective modified cell lines was added to the negative control (NC) columns. Final DMSO concentration was kept at or below 0.25% o. Treated cell plates were placed in an incubator at 37° C. with […] for 24 hours. After 24 hours, 25 μL of Complete HiBit Lytic reagent was added to each well at room temperature (e.g. one plate requiring 10 mL Lytic Buffer, 100 μL LgBiT Protein, 200 μL Lytic Substrate), shaken for 5 minutes at 600 RPM, then left to sit for 10 minutes for signal to stabilize before reading on a Spark Cyto plate reader (Tecan) with a 500 ms measurement time.
To determine compound effects on protein abundance of each target in Table 9, the percent response for each respective cell line was calculated at each compound concentration as follows:
For the normalized response at each concentration, a four-parameter logistical regression was fit to the data and the response was interpolated at the […] to determine a concentration for protein abundance at 50% o (IC50) the untreated control.

SMILES | AC50 (HTT; Homo sapiens, 24 h) | IC50 [1] | IC50 (HTT; Homo sapiens, 24 h) | IC50 (HTT; Homo sapiens, 24 hours) | AC50 (HTT; Homo sapiens, 24 hours) | IC50 (HTT; 24 hours) | AC50 (HTT; 24 hours)
C[C@@H]1C[C@H](N(C)c2ccc3c(c2)OCc2cc(-c4cn[nH]c4)ccc2-3)CCN1 [Compound 101] | > 10 µM | 1 to 10 µM | – | – | – | – | –
C[C@H]1C[C@H](N(C)c2ccc3c(c2)OCc2cc(-c4cn[nH]c4)ccc2-3)CCN1 [Compound 102] | > 10 µM | 1 to 10 µM | > 10 µM | – | – | – | –
CN(c1ccc2c(c1)OCc1cc(-c3cn[nH]c3)ccc1-2)[C@@H]1C[C@H]2CC[C@@H](C1)N2 [Compound 104] | > 10 µM | 1 to 10 µM | > 10 µM | – | – | – | –
CN(c1ccc2c(c1)OCc1cc(-n3cccn3)ccc1-2)[C@@H]1C[C@H]2CC[C@@H](C1)N2 [Compound 105] | – | 1 to 10 µM | – | > 10 µM | > 10 µM | – | –
CN(c1ccc2c(n1)OCc1cc(-c3cn[nH]c3)ccc1-2)[C@@H]1C[C@H]2CC[C@@H](C1)N2 [Compound 108] | < 0.1 µM | < 0.1 µM | < 0.1 µM | – | – | – | –
CN(c1ccc2c(c1)CCOc1cc(-n3cccn3)ccc1-2)[C@@H]1C[C@H]2CC[C@@H](C1)N2 [Compound 113] | > 10 µM | 1 to 10 µM | > 10 µM | – | – | – | –
CN(c1ccc2c(n1)OCc1cc(-c3cn[nH]c3)ccc1-2)C1CCNCC1 [Compound 116] | 1 to 10 µM | 1 to 10 µM | 0.1 to 1 µM | – | – | – | –
CN(c1ccc2c(c1)COc1cc(-n3cccn3)ccc1-2)C1CC(C)(C)NC(C)(C)C1 [Compound 117] | > 10 µM | 1 to 10 µM | > 10 µM | – | – | – | –
CC1(C)CC(Nc2ccc3c(c2)COc2cc(-n4cccn4)ccc2-3)CC(C)(C)N1 [Compound 118] | > 10 µM | 1 to 10 µM | > 10 µM | – | – | – | –
CN(c1ccc2c(n1)COc1cc(-c3cn[nH]c3)ccc1-2)[C@@H]1C[C@H]2CC[C@@H](C1)N2 [Compound 121] | 0.1 to 1 µM | 1 to 10 µM | 0.1 to 1 µM | – | – | – | –
CN(c1ccc2c(n1)COc1cc(-n3cccn3)ccc1-2)[C@@H]1C[C@H]2CC[C@@H](C1)N2 [Compound 124] | – | 1 to 10 µM | – | – | – | 1 to 10 µM | 1 to 10 µM
CN(c1ccc2c(n1)COc1cc(-n3cccn3)ccc1-2)C1CC(C)(C)NC(C)(C)C1 [Compound 125] | > 10 µM | 0.1 to 1 µM | > 10 µM | – | – | – | –
CN(c1ccc2c(n1)CCOc1cc(-n3cccn3)ccc1-2)C1CC(C)(C)NC(C)(C)C1 [Compound 129] | > 10 µM | > 10 µM | > 10 µM | – | – | – | –
CC1(C)CC(Nc2ccc3c(n2)COc2cc(-n4cccn4)ccc2-3)CC(C)(C)N1 [Compound 134] | 1 to 10 µM | 1 to 10 µM | 1 to 10 µM | – | – | – | –
CN(c1cnc2c(n1)OCc1cc(-c3cn[nH]c3)ccc1-2)C1CC(C)(C)NC(C)(C)C1 [Compound 142] | – | 1 to 10 µM | – | – | – | 0.1 to 1 µM | 0.1 to 1 µM
c1cc2c(cc1-c1cn[nH]c1)COc1nc(N[C@@H]3C[C@H]4CC[C@@H](C3)N4)cnc1-2 [Compound 143] | 0.1 to 1 µM | 1 to 10 µM | 0.1 to 1 µM | – | – | – | –
CN(c1cnc2c(n1)OCc1cc(-c3cn[nH]c3)ccc1-2)[C@@H]1C[C@H]2CC[C@@H](C1)N2 [Compound 144] | 0.1 to 1 µM | 0.1 to 1 µM | 0.1 to 1 µM | – | – | – | –
CN(c1ccc2c(n1)OCCc1cc(-c3cn[nH]c3)ccc1-2)C1CC(C)(C)NC(C)(C)C1 [Compound 145] | > 10 µM | 1 to 10 µM | > 10 µM | – | – | – | –

SMILES | AC50 (HTT; Homo sapiens, 24 h) | IC50 [1] | IC50 (HTT; Homo sapiens, 24 h) | IC50 (HTT; Homo sapiens, 24 hours) | AC50 (HTT; Homo sapiens, 24 hours) | IC50 (HTT; 24 hours) | AC50 (HTT; 24 hours)
CN(c1ccc2c(n1)OCCc1cc(-c3cn[nH]c3)ccc1-2)[C@@H]1C[C@H]2CC[C@@H](C1)N2 [Compound 146] | 1 to 10 µM | 1 to 10 µM | 1 to 10 µM | – | – | – | –
CN(c1ccc2c(n1)OCc1cc(-c3cn[nH]c3)ccc1-2)C1CC(C)(C)NC(C)(C)C1 [Compound 147] | 0.1 to 1 µM | 0.1 to 1 µM | 0.1 to 1 µM | – | – | – | –
CN(c1ccc2c(n1)OCc1cc(-n3cccn3)ccc1-2)C1CC(C)(C)NC(C)(C)C1 [Compound 148] | 1 to 10 µM | 1 to 10 µM | 1 to 10 µM | – | – | – | –
CN(c1ccc2c(n1)OCc1cc(-n3cccn3)ccc1-2)[C@@H]1C[C@H]2CC[C@@H](C1)N2 [Compound 149] | < 0.1 µM | 0.1 to 1 µM | 0.1 to 1 µM | – | – | – | –
CN(c1ccc2c(n1)OCc1cc(-n3nccn3)ccc1-2)[C@@H]1C[C@H]2CC[C@@H](C1)N2 [Compound 151] | < 0.1 µM | 0.1 to 1 µM | < 0.1 µM | – | – | – | –
CN(c1ccc2c(n1)OCc1cc(-n3ccnn3)ccc1-2)[C@@H]1C[C@H]2CC[C@@H](C1)N2 [Compound 152] | < 0.1 µM | 0.1 to 1 µM | 0.1 to 1 µM | – | – | – | –
CN(c1ccc2c(n1)OCc1cc(-c3ccn(C)c(=O)c3)ccc1-2)[C@@H]1C[C@H]2CC[C@@H](C1)N2 [Compound 153] | < 0.1 µM | < 0.1 µM | < 0.1 µM | – | – | – | –
Cc1[nH]ncc1-c1ccc2c(c1)COc1nc(N(C)[C@@H]3C[C@H]4CC[C@@H](C3)N4)ccc1-2 [Compound 154] | 0.1 to 1 µM | 0.1 to 1 µM | 0.1 to 1 µM | – | – | – | –
Cc1ncc(-c2ccc3c(c2)COc2nc(N(C)[C@@H]4C[C@H]5CC[C@@H](C4)N5)ccc2-3)o1 [Compound 155] | < 0.1 µM | 0.1 to 1 µM | < 0.1 µM | – | – | – | –
COc1cc(-c2ccc3c(c2)COc2nc(N(C)[C@@H]4C[C@H]5CC[C@@H](C4)N5)ccc2-3)ccn1 [Compound 156] | < 0.1 µM | 0.1 to 1 µM | < 0.1 µM | – | – | – | –
CN(c1ccc2c(n1)OCc1cc(-c3ccc(=O)[nH]c3)ccc1-2)[C@@H]1C[C@H]2CC[C@@H](C1)N2 [Compound 157] | 1 to 10 µM | 1 to 10 µM | 1 to 10 µM | – | – | – | –
CN(c1ccc2c(n1)OCc1cc(-c3ccc(=O)n(C)c3)ccc1-2)[C@@H]1C[C@H]2CC[C@@H](C1)N2 [Compound 158] | 0.1 to 1 µM | 0.1 to 1 µM | 0.1 to 1 µM | – | – | – | –
COc1cc(-c2ccc3c(c2)COc2nc(N(C)[C@@H]4C[C@H]5CC[C@@H](C4)N5)ccc2-3)cnn1 [Compound 159] | < 0.1 µM | < 0.1 µM | < 0.1 µM | – | – | – | –
CN(c1ccc2c(n1)OCc1cc(-c3cnn(C)c(=O)c3)ccc1-2)[C@@H]1C[C@H]2CC[C@@H](C1)N2 [Compound 160] | < 0.1 µM | 0.1 to 1 µM | < 0.1 µM | – | – | – | –
CN(c1ccc2c(n1)OCc1cc(-c3cnc(=O)[nH]c3)ccc1-2)[C@@H]1C[C@H]2CC[C@@H](C1)N2 [Compound 161] | > 10 µM | > 10 µM | > 10 µM | – | – | – | –
c1cc2c(cc1-c1cn[nH]c1)COc1nc(N3CCC34CCNC4)ccc1-2 (stereo not shown) [Compound 207] | – | 1 to 10 µM | – | – | – | – | –
Cc1ncc(-c2ccc3c(c2)COc2nc(O[C@@H]4C[C@H]5C[C@@H](C4)N5)ccc2-3)s1 [Compound 208] | – | 0.1 to 1 µM | – | – | – | – | –
